What was measured:
Settings in all cases: treatment: drug alone; 5 days
A498 [1] = test: GI50, drug alone; higher = less potent
Protocol: (§1)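 Primary HTS: 8 RCC cell lines treated with 8 doses (up to 10 uM) of each library drug alone for 5 days; viability read by CellTiter-Glo and normalised to DMSO. GI50 was fitted with XLfit (4-parameter), AUC is the area under the dose-response curve, and minimum viability is the lowest fraction of DMSO viability across doses.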

769-P [2] = test: GI50, drug alone; higher = less potent
Protocol: as §1

TK-10 [3] = test: GI50, drug alone; higher = less potent
Protocol: as §1

786-O [4] = test: GI50, drug alone; higher = less potent
Protocol: as §1

ACHN [5] = test: GI50, drug alone; higher = less potent
Protocol: as §1

SN12C [6] = test: GI50, drug alone; higher = less potent
Protocol: as §1

UO-31 [7] = test: GI50, drug alone; higher = less potent
Protocol: as §1

CAKI-1 [8] = test: GI50, drug alone; higher = less potent
Protocol: as §1

A498 [9] = test: AUC of dose-response viability curve, drug alone (arbitrary (AUC of normalised viability)); higher = less growth inhibition
Protocol: as §1

769-P [10] = test: as above
Protocol: as §1

TK-10 [11] = test: as above
Protocol: as §1

786-O [12] = test: as above
Protocol: as §1

ACHN [13] = test: as above
Protocol: as §1

SN12C [14] = test: as above
Protocol: as §1

UO-31 [15] = test: as above
Protocol: as §1

CAKI-1 [16] = test: as above
Protocol: as §1

A498 [17] = test: minimum viability across doses, drug alone, relative to DMSO (fraction); higher = less growth inhibition
Protocol: as §1

769-P [18] = test: as above
Protocol: as §1

TK-10 [19] = test: as above
Protocol: as §1

786-O [20] = test: as above
Protocol: as §1

ACHN [21] = test: as above
Protocol: as §1

SN12C [22] = test: as above
Protocol: as §1

UO-31 [23] = test: as above
Protocol: as §1

CAKI-1 [24] = test: as above
Protocol: as §1

| Structure (SMILES) | GI50, drug alone (A498 [1]) [µM] | GI50, drug alone (769-P [2]) [µM] | GI50, drug alone (TK-10 [3]) [µM] | GI50, drug alone (786-O [4]) [µM] | GI50, drug alone (ACHN [5]) [µM] | GI50, drug alone (SN12C [6]) [µM] | GI50, drug alone (UO-31 [7]) [µM] | GI50, drug alone (CAKI-1 [8]) [µM] | AUC of dose-response viability curve (A498 [9]) | AUC of dose-response viability curve (769-P [10]) | AUC of dose-response viability curve (TK-10 [11]) | AUC of dose-response viability curve (786-O [12]) | AUC of dose-response viability curve (ACHN [13]) | AUC of dose-response viability curve (SN12C [14]) | AUC of dose-response viability curve (UO-31 [15]) | AUC of dose-response viability curve (CAKI-1 [16]) | minimum viability across doses (A498 [17]) | minimum viability across doses (769-P [18]) | minimum viability across doses (TK-10 [19]) | minimum viability across doses (786-O [20]) | minimum viability across doses (ACHN [21]) | minimum viability across doses (SN12C [22]) | minimum viability across doses (UO-31 [23]) | minimum viability across doses (CAKI-1 [24]) |
| --- | --- | --- | --- | --- | --- | --- | --- | --- | --- | --- | --- | --- | --- | --- | --- | --- | --- | --- | --- | --- | --- | --- | --- | --- |
| COc1cc(Nc2ncc(F)c(Nc3ccc4c(n3)N(COP(=O)([O-])[O-])C(=O)C(C)(C)O4)n2)cc(OC)c1OC.[Na+].[Na+] | > 10 | 5.08 | 5.18 | 1.24 | 0.973 | 3.32 | 9.63 | 1.02 | 3.85 | 3.1 | 2.53 | 2.1 | 2.42 | 2.73 | 4 | 2.49 | 0.898 | 0.119 | 0.418 | 0.125 | 0.0693 | 0.303 | 0.0974 | 0.035 |
| COc1cc2ncnc(Nc3cccc(Br)c3)c2cc1OC.Cl | > 10 | 1.49 | 1.36 | 6.69 | 0.582 | > 10 | 6.95 | 8.68 | 4.63 | 2.36 | 2.36 | 2.81 | 2.07 | 3.17 | 4.18 | 2.92 | 0.923 | 0.357 | 0.181 | 0.00889 | 0.268 | 0.825 | 0.0153 | 0.378 |
| CNC(=O)c1ccc(C)c(-n2c(C)cc(OCc3ccc(F)cc3F)c(Br)c2=O)c1 | > 10 | > 10 | > 10 | < 0.003 | 4.72 | > 10 | > 10 | > 10 | 4.54 | 3.15 | 2.51 | 1.88 | 2.53 | 2.94 | 3.74 | 3.1 | 1.12 | 0.765 | 0.596 | 0.437 | 0.464 | 0.738 | 0.835 | 0.705 |
| CCc1cccc(CC)c1NC(=O)N1Cc2[nH]nc(NC(=O)c3ccc(N4CCN(C)CC4)cc3)c2C1 | > 10 | > 10 | 5.38 | 0.915 | 3.39 | 2.15 | > 10 | 2.92 | 3.29 | 3.41 | 2.92 | 2.21 | 2.85 | 2.76 | 3.85 | 2.76 | 0.679 | 0.87 | 0.336 | 0.0395 | 0.233 | 0.238 | 0.811 | 0.262 |
| CN(c1ncccc1CNc1nc(Nc2ccc3c(c2)CC(=O)N3)ncc1C(F)(F)F)S(C)(=O)=O.O=S(=O)(O)c1ccccc1 | 7.73 | 4.89 | 4.46 | 0.21 | 2.59 | 3.88 | 4.55 | 5.15 | 3.68 | 3.06 | 2.8 | 1.79 | 2.86 | 2.94 | 3.81 | 3.34 | 0.018 | 0.0576 | 0.132 | 0.00443 | 0.0138 | 0.0169 | 0.0117 | 0.0631 |
| CC(=O)NCC(=O)N1[C@H]2CC[C@H]1c1cc(Nc3ncc(C(F)(F)F)c(NC4CCC4)n3)ccc12 | 4.77 | 0.375 | 0.725 | 0.0151 | 0.0806 | 0.557 | 2.64 | 0.173 | 3.32 | 2.09 | 2.18 | 0.907 | 1.5 | 2.12 | 2.54 | 1.81 | 0.0256 | 0.0288 | 0.128 | 0.0093 | 0.0112 | 0.0115 | 0.0196 | 0.123 |
| OCCn1cc(-c2cnc3nnn(Cc4ccc5ncccc5c4)c3n2)cn1 | > 10 | > 10 | > 10 | > 10 | > 10 | > 10 | > 10 | > 10 | 4.04 | 3.3 | 3.18 | 4 | 2.48 | 3.37 | 4.37 | 2.32 | 0.984 | 0.883 | 0.804 | 1.01 | 0.542 | 0.879 | 1.15 | 0.615 |
| CNC(=O)c1nn(C)c2c1C(C)(C)Cc1cnc(Nc3ccc(N4CCN(C)CC4)cc3)nc1-2 | 4.8 | 1 | 0.311 | 0.366 | 0.0953 | 0.957 | 1.33 | 0.174 | 3.76 | 2.48 | 2.06 | 2.22 | 1.53 | 2.54 | 2.64 | 1.81 | 0.0273 | 0.0249 | 0.177 | 0.00535 | 0.0129 | 0.0145 | 0.0155 | 0.0591 |
| O=C(NOCC(O)CO)c1cc(Br)c(F)c(F)c1Nc1ccc(I)cc1F (stereo unspecified) | > 10 | 4.98 | 2.84 | 0.448 | 1.99 | > 10 | > 10 | 1.25 | 3.58 | 2.62 | 2.4 | 1.94 | 2.42 | 2.83 | 3.29 | 2.32 | 0.89 | 0.427 | 0.419 | 0.263 | 0.372 | 0.602 | 0.816 | 0.202 |

From the supplement of paper PMC8149375
